# Measured values: US5037841A, “1,3-disubstituted pyrrolidines” (Bayer Aktiengesellschaft, priority 1988, dated 1991)
# Where a name gives a salt, the structure may show the parent alone.
# Target: T1, 5-HT1 receptor (Bos taurus, UniProt F6Q2H9)
# T1 construct: calf hippocampus membrane preparations; from tissue; host or cells: calf hippocampus membranes
# T1 sequence (F6Q2H9 1-422): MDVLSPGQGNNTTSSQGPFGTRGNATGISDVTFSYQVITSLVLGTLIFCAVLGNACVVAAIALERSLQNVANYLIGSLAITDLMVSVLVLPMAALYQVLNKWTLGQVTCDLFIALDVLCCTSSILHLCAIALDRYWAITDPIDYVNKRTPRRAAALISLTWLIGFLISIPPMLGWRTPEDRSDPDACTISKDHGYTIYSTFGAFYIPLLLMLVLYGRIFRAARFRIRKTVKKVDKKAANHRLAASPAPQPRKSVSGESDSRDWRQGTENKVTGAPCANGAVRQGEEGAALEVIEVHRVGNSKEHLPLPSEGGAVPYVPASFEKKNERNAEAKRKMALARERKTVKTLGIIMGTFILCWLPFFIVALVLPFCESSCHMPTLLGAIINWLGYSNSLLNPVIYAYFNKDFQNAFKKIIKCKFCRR
# Assay: Affinity for the 5-HT1 receptor: receptor binding studies using calf hippocampus membrane preparations, 3H-serotonin as radioligand
# Details: Comparison compound of DE-A 1,964,511; test conditions not restated; read-out: Ki value (comparison compound)
# Excerpt: Affinity for the 5-HT1 receptor
# The high affinity of the compound according to the invention for 5-hydroxytryptamine receptors of the subtype […] is represented by way of example in Table 4. The values indicated are data which have been determined from receptor binding studies using calf hippocampus membrane preparations. For this purpose, ^3 H-serotonin was used as a radioactively labelled ligand.
row,Ki [nM],Structure (SMILES)
1,1000,"COc1ccccc1OC1CCN(C(C)C)C1 (stereo not shown) [Comparison, reference compound]"

# Same assay, conditions: calf hippocampus membranes; 3H-serotonin radioligand; read-out: Ki
row,Structure (SMILES),Ki [nM]
1,"O=C1c2ccccc2S(=O)(=O)N1CCCCN1CCC(Oc2cccc3ccccc23)C1 (stereo not shown) [Example 23, 3-(1-naphthyloxy)-1-[4-(1,1-dioxido-3-oxo-2,3-dihydrobenzisothiazol-2-yl)butyl]-pyrrolidine]",0.3
2,"NC(=O)c1ccccc1OC1CCN(CCCCN2C(=O)c3ccccc3S2(=O)=O)C1 (stereo not shown) [Example 19, 3-(2-carbamoylphenoxy)-1-[4-(1,1-dioxido-3-oxo-2,3-dihydrobenzisothiazol-2-yl)butyl]-pyrrolidine]",7
3,"N#Cc1ccccc1OC1CCN(CCCCN2C(=O)c3ccccc3S2(=O)=O)C1 (stereo not shown) [Example 1, 3-(2-Cyanophenoxy)-1-[4-(1,1-dioxido-3-oxo-2,3-dihydrobenzisothiazol-2-yl)butyl]-pyrrolidine oxalate]",2
4,"COc1ccccc1OC1CCN(CCCCN2C(=O)c3ccccc3S2(=O)=O)C1 (stereo not shown) [Example 8, 3-(2-methoxyphenoxy)-1-[4-(1,1-dioxido-3-oxo-2,3-dihydrobenzisothiazol-2-yl)butyl]-pyrrolidine]",1.3

# More lines, now with the values ahead:
row,Ki [nM],Structure (SMILES)
1,9,O=C1c2ccccc2S(=O)(=O)N1CCCCN1CCC(Oc2ccccc2)C1 (stereo not shown) [Example 6]
2,6,"COc1cccc(OC2CCN(CCCCN3C(=O)c4ccccc4S3(=O)=O)C2)c1 (stereo not shown) [Example 10, 3-(3-methoxyphenoxy)-1-[4-(1,1-dioxido-3-oxo-2,3-dihydrobenzisothiazol-2-yl)butyl]-pyrrolidine]"
